In US20220090998A1, “URINE STABILIZATION” (QIAGEN GmbH, priority 2019, published 2022):

Assays:
[1] = system: human Y-chromosomale DYS14 gene, 66 bp amplicon; test: Real time PCR for Y-chromosomal DYS14 DNA: preservation of male cell-free DNA spiked into female urine
Experimental: (§1) Cell-free DNA from 4-4.8 ml stabilized or unstabilized urine was isolated with the QIAsymphony PAXgene Blood ccfDNA Kit (QIAGEN kit) protocol.
To measure the degradation of cell-free DNA, the relative yield of male cell-free DNA spiked into female samples was analyzed. A real time PCR assay on RotorGene Q (QIAGEN GmbH) was performed with 8 μl of eluate.
Urine from one donor was centrifuged twice to remove all cells from the urine for spike-in into female urine. Urine was collected in larger bottles from two female and two male donors. In case of the two female donors 25 ml centrifuged and therefore cell-free male urine was added to the 200 ml female urine. Approximately 120 ml urine from each donor was filled into BD Vacutainer Urine Collection Cups. Urine was transferred from the cups into two spray dried EDTA tubes, one PAXgene Blood ccfDNA tube and one Streck cell-free DNA BCT tube per donor. One of the EDTA tubes per donor was opened and 1.7 ml of stabilization reagent R1 was added. All tubes were carefully inverted 5 times to mix the urine with the components.
(§2) Cell-free DNA was subsequently purified on the QIAsymphony either directly after collection (t0) or after 1, 3 and 9 days incubation at room temperature. […] Relative yield of Y-chromosomale DYS14 DNA was determined from duplicate samples by real time PCR (no PCR replicates).
Urine from one donor was centrifuged twice to remove all cells from the urine for spike in into female urine. 200 ml urine each from six female donors were collected in large bottles and mixed with 25 ml cell-free male urine directly after collection. Aliquots of 10 ml urine ([…]) were mixed with 1.7 ml reagent. […] All samples were processed in duplicates. Real time PCR for y-chromosomale DYS14 DNA was performed from duplicate samples.
To analyse the effect of pH on cell-free DNA preservation, urine from one donor was centrifuged twice to remove all cells from the urine for spike in into female urine. 200 ml urine each from four female donors were collected in large bottles and mixed with 25 ml cell-free male urine directly after collection. […]

[2] = system: human 18S rDNA gene, 66 bp amplicon; test: Real time PCR of 18S rDNA 66 bp fragment in cell-free DNA from urine
Experimental: as §1
Total quantification was achieved by comparison with a standard curve generated with human genomic DNA samples equivalent to 10.000 to 10 copies of human 18s rDNA gene.
Quantification of the 500 bp was used to determine the amount of 18S rDNA copies which derived from apoptotic or mechanically lysed urine cells. […] Therefore 500 bp fragments can be considered to be derived from apoptotic, lysed or otherwise destructed urine cells.
All samples were processed in duplicates.
as §2
200 ml urine each from three donors was collected. […] For processing, the samples were centrifuged 15 min at 1900×g. Supernatant was centrifuged again (10 min 1900×g) and the supernatant from the second centrifugation was used for duplicate purification of cell-free DNA on a QIAsymphony system. The cell pellet obtained after the first centrifugation was resolved in 300 μl PBS. 200 μl of the resuspended cell pellet was used for extraction of the genomic DNA using the QIAamp Blood Mini kit. The remaining 100 μl were centrifuged on a glass slide and stained with Papanicolaou (see FIG. 7). […] Genomic DNA yield was measured on a Nanodrop instrument.
Supernatant was centrifuged again (10 min at 1900×g) and the supernatant from the second centrifugation was used for duplicate purification of cell-free DNA on the QIAsymphony.
For EDTA stabilized samples the overall increase in DNA can be deduced from the observed degradation (Dys 14—see FIG. 16) and increase (18s—see FIGS. 14 and 15).

[3] = system: human 18S rDNA gene, 500 bp amplicon; details: t0 to t4 d storage (FIG. 15)
Experimental: Cell-free DNA from 4-4.8 ml stabilized or unstabilized urine was isolated with the QIAsymphony PAXgene Blood ccfDNA Kit (QIAGEN kit) protocol. The QIAsymphony robot mixed urine with proteinase K, binding buffer and magnetic beads. Beads with bound DNA were washed three times and DNA was eluted using 60 μl elution buffer.
To measure the amount of cell-free DNA a real time PCR assay on Abi Prism HT7900 (Life technologies) was performed with 8 μl of eluate. In a 20 μl assay volume using QuantiTect Multiplex PCR Kit reagents (QIAGEN GmbH) two fragments of the human 18S rDNA gene were amplified in a multiplex PCR. Total quantification was achieved by comparison with a standard curve generated with human genomic DNA samples equivalent to 10.000 to 10 copies of human 18s rDNA gene.
Quantification of the 66 bp fragment was used to reflect the total amount of 18S rDNA copies in the urine. Quantification of the 500 bp was used to determine the amount of 18S rDNA copies which derived from apoptotic or mechanically lysed urine cells.
200 ml urine each from four female and two male donors was collected. Aliquots of 10 ml urine were mixed within 15 min after sampling with 1.7 ml PBS or stabilizing reagent. […] The copy numbers of 18s rDNA were determined from duplicate samples in triplicates by real time PCR.

O=C(O)CN(CCN(CC(=O)O)CC(=O)O)CC(=O)O [EDTA, Ethylenediaminetetraacetic acid]
preservation of spiked in male cell-free DNA (DYS14 delta Ct versus t0), words ([1]; Example 2, 2 female donors, 1, 3 and 9 days at RT (FIG. 4)): neither prevents sufficiently cell free DNA degradation | Delta Ct t0-t4 d Dys 14 ([1]; male cell-free urine spiked in female urine, 4 days storage at RT (FIG. 16)): ~2 | Reduction (of DYS14 DNA, from Delta Ct) ([1]; t0 to t4 d at RT): 4 fold | Delta Ct t0-t4 d 18 s 66 bp ([2]; 4 days storage at RT (FIG. 14)): 2 | total DNA in urine over storage (18s rDNA 66 bp copies versus t0), words ([2]; Example 2, BD Vacutainer cup to tubes, 1, 3 and 9 days at RT, 4 donors (FIG. 3)): nor an increase in total DNA comprised in the urine due to DNA release from cells | Overall increase (in DNA resulting from cells) ([2]; deduced from observed degradation (Dys 14) and increase (18s), t0 to t4 d): 4 × 4 = 16 fold | Increase (of 18S 66 bp DNA, from Delta Ct) ([2]; t0 to t4 d at RT): 4 fold | change in the 66 bp fragment ([2]; t0 to t4 d storage (FIG. 14)): small increase | decrease in the 500 bp fragment [3]: approx. 32 fold
